{"source": "patent US20090123555A1", "about": "“Stimulateable Polymer Particles Exhibiting Reactive Functions, Method for the Production and the Use Thereof” (CENTRE NATIONAL DE LA RECHER CHE SCIENTIFIQUE, priority 2004, published 2009)", "assay": "Release of the active ingredient from the particle by lowering of the pH, followed by UV-visible spectrometry", "assay_type": "physicochemical", "excerpt": "Once the particle was synthesised we verified by UV-visible spectrometry the possibility of releasing the medicament by simple lowering of the pH.", "data": [{"smiles": "COc1ccc2c(c1)c(CC(=O)O)c(C)n2C(=O)c1ccc(Cl)cc1", "note": "[indomethacin]", "values": [{"measurement": "release of the medicament by simple lowering of the pH", "setting": "lowering of the pH, release from the particle", "result": "progressive and controlled release"}, {"measurement": "indomethacin salted out (released) from the particle", "setting": "pH equal to 3, in 48 hours, indomethacin covalently bonded inside the particle (NB-PCL-POE-OMe stabilised latex)", "result": "more than 85%"}]}]}
